Test results published in US20250381190A1, “THERAPEUTIC COMBINATIONS OF CAPIVASERTIB AND VENETOCLAX” (AstraZeneca AB, priority 2022, published 2025).

Columns and labels:
DLBCL cell lines = experiment: In vitro activity against DLBCL cell lines; format: cell-based; details: used individually
[1] = test system: SUDHL4 human GCB-DLBCL tumor cells; experiment: SUDHL4 xenograft efficacy (tumor volume, TGI, regression); format: in vivo, female CB.17 SCID mice; details: Study 1
Method: (§1) For the experiments described below, SUDHL4 human GCB-DLBCL tumor cells (10×10^6/mouse) were implanted subcutaneously into female CB.17 SCID mice. Mice were randomized into groups of 5 for efficacy and tolerability assessments based on tumor volume and treated with either vehicles (10% DMSO/25% Kleptose pH=5 (Vehicle 1) and 10% ethanol/30% PEG 400/60% Phosal PG-50 (Vehicle 2)), 130 mg/kg or 45 mg/kg capivasertib, 100 mg/kg venetoclax or the combination of capivasertib and venetoclax. Capivasertib was formulated in 10% DMSO/25% Kleptose pH=5 and venetoclax was formulated in 10% ethanol/30% PEG 400/60% Phosal PG-50. All agents were dosed by oral gavage at a 5 ml/kg dose volume according to schedules described, following tumor cell implantation. Tumor length and width was measured by caliper and tumor volume was calculated using the formula (length×width^2)*π/6.

[2] = Tolerability (body weight change) in SUDHL4 tumor-bearing mice; format: in vivo, female CB.17 SCID mice; details: Study 1
Method: as §1

[3] = capivasertib 130 mg/kg PO BID 10/14 4 days on/3 days off x 22 days
[4] = venetoclax 100 mg/kg PO QD (continuous) x 22 days

Structure (SMILES) | Activity against DLBCL cell lines (DLBCL cell lines) | Regression [1, 3] | TGI [1, 3] | TGI ([1]; capivasertib 130 mg/kg PO BID 10/14 4 days on/3 days off x 22 days, listed as capivasertib) | Max avg body weight loss [2, 3] | Regression [1, 4] | TGI [1, 4] | TGI ([1]; venetoclax 100 mg/kg PO QD (continuous) x 22 days, listed as venetoclax) | Max avg body weight loss [2, 4]
NC1(C(=O)N[C@@H](CCO)c2ccc(Cl)cc2)CCN(c2ncnc3[nH]ccc23)CC1 [Capivasertib, (S)-4-amino-N-(1-(4-chlorophenyl)-3-hydroxypropyl)-1-(7H-pyrrolo[2,3-d]pyrimidin-4-yl)piperidine-4-carboxamide] | have activity | 0% | 82% | 82% | 6% | – | – | – | –
CC1(C)CCC(CN2CCN(c3ccc(C(=O)NS(=O)(=O)c4ccc(NCC5CCOCC5)c([N+](=O)[O-])c4)c(Oc4cnc5[nH]ccc5c4)c3)CC2)=C(c2ccc(Cl)cc2)C1 [Venetoclax, 4-(4-{[2-(4-chlorophenyl)-4,4-dimethylcyclohex-1-en-1-yl]methyl}piperazin-1-yl)-N-({3-nitro-4-[(tetrahydro-2H-pyran-4-ylmethyl)amino]phenyl}sulfonyl)-2-(1H-pyrrolo[2,3-b]pyridin-5-yloxy)benzamide] | have activity | – | – | – | – | 0% | 42% | 42% | 2%
